Measured values as given in PubChem BioAssay AID1963835 (Molecular Pharmacology Branch, DTP, NCI, 2024).

System: 699152-130-R-J1-PDC complex spheroid viability
Test: Anticancer human tumor 699152-130-R-J1-PDC patient-derived pancreatic carcinoma cell line growth inhibition [POLQ]
Details: for IC50: curve of first compound; for viability, T/C: stronger effect = lower value
Summary of the method: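 PDC + HUVEC + MSC complex spheroids; POLQ inhibitors ± partner drugs; top conc. at/near clinical Cmax, else 10 microM (SN-38 1 microM), half-log dilutions; 37 degrees C, 5% CO2.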

[1] = second compound 0.0316 µM, first compound 0.0316 µM
[2] = second compound 0.0316 µM, first compound 0.1 µM
[3] = second compound 0.0316 µM, first compound 0.316 µM
[4] = second compound 0.0316 µM, first compound 1 µM
[5] = second compound 0.0316 µM, first compound 3.16 µM
[6] = second compound 0.0316 µM, first compound 10 µM
[7] = second compound 0.1 µM, first compound 0.0316 µM
[8] = second compound 0.1 µM, first compound 0.1 µM
[9] = second compound 0.1 µM, first compound 0.316 µM
[10] = second compound 0.1 µM, first compound 1 µM
[11] = second compound 0.1 µM, first compound 3.16 µM
[12] = second compound 0.1 µM, first compound 10 µM
[13] = second compound 0.316 µM, first compound 0.0316 µM
[14] = second compound 0.316 µM, first compound 0.1 µM
[15] = second compound 0.316 µM, first compound 0.316 µM
[16] = second compound 0.316 µM, first compound 1 µM
[17] = second compound 0.316 µM, first compound 3.16 µM
[18] = second compound 0.316 µM, first compound 10 µM
[19] = second compound 1 µM, first compound 0.0316 µM
[20] = second compound 1 µM, first compound 0.1 µM
[21] = second compound 1 µM, first compound 0.316 µM
[22] = second compound 1 µM, first compound 1 µM
[23] = second compound 1 µM, first compound 3.16 µM
[24] = second compound 1 µM, first compound 10 µM
[25] = second compound 3.16 µM, first compound 0.0316 µM
[26] = second compound 3.16 µM, first compound 0.1 µM
[27] = second compound 3.16 µM, first compound 0.316 µM
[28] = second compound 3.16 µM, first compound 1 µM
[29] = second compound 3.16 µM, first compound 3.16 µM
[30] = second compound 3.16 µM, first compound 10 µM
[31] = second compound 10 µM, first compound 0.0316 µM
[32] = second compound 10 µM, first compound 0.1 µM
[33] = second compound 10 µM, first compound 0.316 µM
[34] = second compound 10 µM, first compound 1 µM
[35] = second compound 10 µM, first compound 3.16 µM
[36] = second compound 10 µM, first compound 10 µM
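Also: spheroids exposed to agents for 7 days before viability reading.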
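For viability, T/C in this document: percent of DMSO vehicle control viability so 100% = vehicle and 0% = no viable signal.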

C#Cc1c(F)ccc2cc(O)cc(-c3ncc4c(N5CC6CCC(C5)N6)nc(OCC56CCCN5CC(F)C6)nc4c3F)c12 (stereo not drawn) + Nc1ccc(C#CCN(C(=O)Cc2ncc(C(F)(F)F)cc2C(F)(F)F)c2ccc(F)cc2)nn1 gave an IC50 (second compound 0.0316 µM) of less than 31.6 nM, an IC50 (second compound 0.1 µM) of less than 31.6 nM and an IC50 (second compound 0.316 µM) of less than 31.6 nM. It also gave an IC50 (second compound 1 µM) of less than 31.6 nM, an IC50 (second compound 3.16 µM) of less than 31.6 nM and an IC50 (second compound 10 µM) of less than 31.6 nM. It also gave a viability, T/C [1] of 26%, a viability, T/C [2] of 18.8% and a viability, T/C [3] of 14.6%. It also gave a viability, T/C [4] of 12.1%, a viability, T/C [5] of 14.2% and a viability, T/C [6] of 11.9%. It also gave a viability, T/C [7] of 25.1%, a viability, T/C [8] of 21.8% and a viability, T/C [9] of 15.4%. It also gave a viability, T/C [10] of 13.7%, a viability, T/C [11] of 13.3% and a viability, T/C [12] of 13.2%. For the same molecule, the viability, T/C [13] was 24%, the viability, T/C [14] was 16.3% and the viability, T/C [15] was 18.9%. For the same molecule, the viability, T/C [16] was 12.3%, the viability, T/C [17] was 12.4% and the viability, T/C [18] was 12.1%. For the same molecule, the viability, T/C [19] was 18.8%, the viability, T/C [20] was 18.8% and the viability, T/C [21] was 13.5%. The viability, T/C [22] was 12.8%, the viability, T/C [23] was 12.8% and the viability, T/C [24] was 12.4%. It also gave a viability, T/C [25] of 21.6%, a viability, T/C [26] of 16.9% and a viability, T/C [27] of 13%. It also gave a viability, T/C [28] of 13.3%, a viability, T/C [29] of 11.8% and a viability, T/C [30] of 14.2%. For the same molecule, the viability, T/C [31] was 32.2%, the viability, T/C [32] was 18.8% and the viability, T/C [33] was 14.3%. For the same molecule, the viability, T/C [34] was 14.6%, the viability, T/C [35] was 13.5% and the viability, T/C [36] was 11.5%.

CC1COCCN1c1cc(C2(O)CC3CCC(C2)O3)c2cnn(-c3ccn[nH]3)c2n1 (stereo not drawn) + Nc1ccc(C#CCN(C(=O)Cc2ncc(C(F)(F)F)cc2C(F)(F)F)c2ccc(F)cc2)nn1 was tested, and the IC50 (second compound 0.0316 µM) was 1490 nM, the IC50 (second compound 0.1 µM) was 2700 nM and the IC50 (second compound 0.316 µM) was 1500 nM. For the same molecule, the IC50 (second compound 1 µM) was 1380 nM, the IC50 (second compound 3.16 µM) was 1520 nM and the IC50 (second compound 10 µM) was 2210 nM. For the same molecule, the viability, T/C [1] was 85.6%, the viability, T/C [2] was 81.3% and the viability, T/C [3] was 60.7%. It also gave a viability, T/C [4] of 56.8%, a viability, T/C [5] of 42.5% and a viability, T/C [6] of 35.1%. It also gave a viability, T/C [7] of 86.6%, a viability, T/C [8] of 79.1% and a viability, T/C [9] of 68.1%. For the same molecule, the viability, T/C [10] was 61.3%, the viability, T/C [11] was 48.6% and the viability, T/C [12] was 36.2%. For the same molecule, the viability, T/C [13] was 94.9%, the viability, T/C [14] was 85.7% and the viability, T/C [15] was 66.8%. The viability, T/C [16] was 53.6%, the viability, T/C [17] was 44.8% and the viability, T/C [18] was 35.9%. It also gave a viability, T/C [19] of 104%, a viability, T/C [20] of 83.5% and a viability, T/C [21] of 67.2%. It also gave a viability, T/C [22] of 53.2%, a viability, T/C [23] of 42.5% and a viability, T/C [24] of 30.6%. The viability, T/C [25] was 100%, the viability, T/C [26] was 84.6% and the viability, T/C [27] was 65.5%. The viability, T/C [28] was 51%, the viability, T/C [29] was 48.9% and the viability, T/C [30] was 40.3%. The viability, T/C [31] was 104%, the viability, T/C [32] was 90.9% and the viability, T/C [33] was 65.2%. For the same molecule, the viability, T/C [34] was 56.8%, the viability, T/C [35] was 51.5% and the viability, T/C [36] was 37.1%.

CCc1cc2c(N3CCc4c(cc(Cn5ccnc5)cc4-c4cn(C)nc4C(F)(F)F)C3=O)cc(C)nc2c(OC)n1 + Nc1ccc(C#CCN(C(=O)Cc2ncc(C(F)(F)F)cc2C(F)(F)F)c2ccc(F)cc2)nn1 was tested, and the IC50 (second compound 0.0316 µM) was greater than 10000 nM, the IC50 (second compound 0.1 µM) was greater than 10000 nM and the IC50 (second compound 0.316 µM) was greater than 10000 nM. The IC50 (second compound 1 µM) was greater than 10000 nM, the IC50 (second compound 3.16 µM) was greater than 10000 nM and the IC50 (second compound 10 µM) was greater than 10000 nM. It also gave a viability, T/C [1] of 85.8%, a viability, T/C [2] of 89.8% and a viability, T/C [3] of 97.3%. It also gave a viability, T/C [4] of 101%, a viability, T/C [5] of 99.4% and a viability, T/C [6] of 106%. The viability, T/C [7] was 87.7%, the viability, T/C [8] was 88.8% and the viability, T/C [9] was 96.9%. The viability, T/C [10] was 93.4%, the viability, T/C [11] was 100% and the viability, T/C [12] was 107%. The viability, T/C [13] was 89.5%, the viability, T/C [14] was 94.2% and the viability, T/C [15] was 101%. For the same molecule, the viability, T/C [16] was 89.7%, the viability, T/C [17] was 97% and the viability, T/C [18] was 101%. It also gave a viability, T/C [19] of 86.5%, a viability, T/C [20] of 93.6% and a viability, T/C [21] of 95.6%. The viability, T/C [22] was 95.5%, the viability, T/C [23] was 100% and the viability, T/C [24] was 104%. For the same molecule, the viability, T/C [25] was 105%, the viability, T/C [26] was 95.7% and the viability, T/C [27] was 102%. The viability, T/C [28] was 106%, the viability, T/C [29] was 107% and the viability, T/C [30] was 106%. The viability, T/C [31] was 99.8%, the viability, T/C [32] was 118% and the viability, T/C [33] was 110%. The viability, T/C [34] was 107%, the viability, T/C [35] was 117% and the viability, T/C [36] was 115%.

O=C(Nc1ccc(O)c(NS(=O)(=O)c2ccc(F)cc2)c1)c1ccc(-c2ccccc2)cc1 + Nc1ccc(C#CCN(C(=O)Cc2ncc(C(F)(F)F)cc2C(F)(F)F)c2ccc(F)cc2)nn1 gave an IC50 (second compound 0.0316 µM) greater than 10000 nM, an IC50 (second compound 0.1 µM) greater than 10000 nM and an IC50 (second compound 0.316 µM) greater than 10000 nM. The IC50 (second compound 1 µM) was greater than 10000 nM, the IC50 (second compound 3.16 µM) was greater than 10000 nM and the IC50 (second compound 10 µM) was greater than 10000 nM. The viability, T/C [1] was 101%, the viability, T/C [2] was 95.9% and the viability, T/C [3] was 98.2%. For the same molecule, the viability, T/C [4] was 111%, the viability, T/C [5] was 100% and the viability, T/C [6] was 62.8%. For the same molecule, the viability, T/C [7] was 89.5%, the viability, T/C [8] was 102% and the viability, T/C [9] was 95.2%. For the same molecule, the viability, T/C [10] was 103%, the viability, T/C [11] was 102% and the viability, T/C [12] was 59.4%. It also gave a viability, T/C [13] of 116%, a viability, T/C [14] of 108% and a viability, T/C [15] of 114%. The viability, T/C [16] was 101%, the viability, T/C [17] was 110% and the viability, T/C [18] was 68.8%. For the same molecule, the viability, T/C [19] was 108%, the viability, T/C [20] was 103% and the viability, T/C [21] was 104%. For the same molecule, the viability, T/C [22] was 102%, the viability, T/C [23] was 102% and the viability, T/C [24] was 64.7%. For the same molecule, the viability, T/C [25] was 104%, the viability, T/C [26] was 103% and the viability, T/C [27] was 103%. The viability, T/C [28] was 107%, the viability, T/C [29] was 112% and the viability, T/C [30] was 67.9%. It also gave a viability, T/C [31] of 110%, a viability, T/C [32] of 122% and a viability, T/C [33] of 114%. The viability, T/C [34] was 103%, the viability, T/C [35] was 109% and the viability, T/C [36] was 59.3%.
